Measured values from PMC12164754, “Phosphoglycerate dehydrogenase is required for kernel development and defines a predominant serine synthesis pathway in maize” (The Plant Cell, 2025).

Columns and labels:
[1] = target: T1, DEK20 (phosphoglycerate dehydrogenase1, PGDH1) (Zea mays, UniProt A0A1D6DW07); experiment: microscale thermophoresis (MST); assay type: binding
T1 construct: gene LOC103645840; recombinant His-DEK20
T1 sequence (A0A1D6DW07 1-387): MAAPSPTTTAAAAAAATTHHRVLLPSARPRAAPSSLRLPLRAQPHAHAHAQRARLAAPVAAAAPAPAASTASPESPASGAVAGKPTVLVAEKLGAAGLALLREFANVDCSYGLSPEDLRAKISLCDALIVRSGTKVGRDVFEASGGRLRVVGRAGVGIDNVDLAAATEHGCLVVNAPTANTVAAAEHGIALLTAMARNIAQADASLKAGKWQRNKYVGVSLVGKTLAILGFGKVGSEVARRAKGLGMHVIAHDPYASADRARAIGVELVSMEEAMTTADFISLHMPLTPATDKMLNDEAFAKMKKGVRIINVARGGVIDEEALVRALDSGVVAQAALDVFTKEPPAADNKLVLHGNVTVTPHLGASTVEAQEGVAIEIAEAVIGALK

[2] = target: T2, DEK20 (phosphoglycerate dehydrogenase1, PGDH1) (Zea mays, UniProt A0A1D6DW07, S282L); experiment: microscale thermophoresis (MST); assay type: binding
T2 construct: gene LOC103645840; recombinant His-DEK20
T2 sequence (A0A1D6DW07 entry or part of it S282L): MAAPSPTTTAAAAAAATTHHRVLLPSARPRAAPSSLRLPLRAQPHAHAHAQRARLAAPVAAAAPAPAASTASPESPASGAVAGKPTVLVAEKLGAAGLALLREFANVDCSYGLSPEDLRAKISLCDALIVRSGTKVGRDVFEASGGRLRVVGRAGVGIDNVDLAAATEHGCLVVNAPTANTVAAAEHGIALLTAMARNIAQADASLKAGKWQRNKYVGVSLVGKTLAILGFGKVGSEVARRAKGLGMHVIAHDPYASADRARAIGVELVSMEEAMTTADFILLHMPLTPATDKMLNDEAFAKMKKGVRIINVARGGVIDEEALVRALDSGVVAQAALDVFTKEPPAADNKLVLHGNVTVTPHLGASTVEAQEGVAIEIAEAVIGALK

[3] = target: DEK20^WT (truncated DEK20, residues 1-387, substrate binding domain and nucleotide-binding domain) (maize (Zea mays)); experiment: crystal structure; apo form, 3.5 Å; about 16 mg/ml DEK20^WT crystallised in sodium nitrate, sodium phosphate dibasic, ammonium sulfate, HEPES/MOPS pH 7.5, glycerol, PEG 4000; solved by molecular replacement

| stoichiometry N [3] | Compound | Kd [1] [µM] | Kd [2] [µM] |
| --- | --- | --- | --- |
|  | NC(=O)c1ccc[n+]([C@@H]2O[C@H](COP(=O)([O-])OP(=O)(O)OC[C@H]3O[C@@H](n4cnc5c(N)ncnc54)[C@H](O)[C@@H]3O)[C@@H](O)[C@H]2O)c1 [NAD^+] | 32.4 | 8.11 |
| 2 | DEK20^WT (truncated DEK20, residues 1-387, substrate binding domain and nucleotide-binding domain) (domain or fragment) |  |  |
